Source: article PMC5572576 (The Lancet. Oncology, 2017)
Like-named read-outs stand apart in the source and are kept apart here. Marks after values point to notes of the source that are not given here.

System: patients with R/R AML
[1] = 120 mg, possibly related to treatment

CCc1nc(C(N)=O)c(Nc2ccc(N3CCC(N4CCN(C)CC4)CC3)c(OC)c2)nc1NC1CCOCC1 [gilteritinib]
< 20%: Probability of experiencing a DLT (doses up to 200mg)
30 (12%) n (%): Decreased platelet count, Grade 4 (human, in vivo) | Nausea, Grade 1 (human, in vivo)
16 (6%) n (%): Hypotension, Grade 3 (human, in vivo) | Pyrexia, Grade 2 (human, in vivo)
3%: AE that led to study discontinuation: sepsis (human, in vivo)
4 n: Treatment-related Grade ≥3 elevated alanine aminotransferase (200 mg/d)
41 (16%) n (%): Progressive AML, Grade 5 (human, in vivo)
2 ^c n: Deaths, primary cause Intracranial hemorrhage (20 mg, one death considered possibly related to treatment) | Deaths, primary cause Septic shock (80 mg, one death considered possibly related to treatment)
10 n: Deaths, primary cause AML (120 mg)
1 n: Deaths, primary cause Multi-organ failure (40 mg) | Deaths, primary cause Diabetic ketoacidosis (80 mg) | Deaths, primary cause Respiratory failure (80 mg) | Treatment-related Grade ≥3 elevated AST (80 mg/d) | Treatment-related Grade ≥3 elevated alanine aminotransferase (80 mg/d) | Deaths, primary cause Colitis/neutropenic colitis (120 mg) | Deaths, primary cause Hepatic infection (120 mg) | Deaths, primary cause Multi-organ failure (120 mg) | Deaths, primary cause Respiratory failure (120 mg) | Deaths, primary cause Sepsis/staphylococcal sepsis (120 mg) | Treatment-related Grade ≥3 diarrhea (120 mg/d) | Treatment-related Grade ≥3 elevated alanine aminotransferase (120 mg/d) | Deaths, primary cause Anemia (200 mg) | Deaths, primary cause Bronchopulmonary aspergillosis (200 mg) | Deaths, primary cause Cardiac arrest (200 mg) | Deaths, primary cause Cellulitis (200 mg) | Deaths, primary cause Cerebrovascular ischemia (200 mg) | Deaths, primary cause Colitis/neutropenic colitis (200 mg) | Deaths, primary cause Death NOS (200 mg) | Deaths, primary cause Febrile neutropenia (200 mg) | Deaths, primary cause Hypoxia (200 mg) | Deaths, primary cause Intracranial hemorrhage (200 mg) | Deaths, primary cause Loss of consciousness (200 mg) | Deaths, primary cause Lung infection (200 mg) | Deaths, primary cause Renal failure (200 mg) | Deaths, primary cause Sudden death (200 mg) | Deaths, primary cause Ventricular tachycardia (200 mg) | Deaths, primary cause Renal failure (300 mg) | Deaths, primary cause Respiratory failure (300 mg) | Treatment-related Grade ≥3 elevated AST (300 mg/d) | Deaths, primary cause Cardiac arrest (450 mg)
31 (12%) n (%): Fatigue, Grade 1 (human, in vivo) | Thrombocytopenia, Grade 4 (human, in vivo)
1 (0.4) n (%): Fall, Grade 4 (human, in vivo)
3 (1·2%) n (%): Bacteremia, Grade 4 (human, in vivo) | Decreased platelet count, Grade 2 (human, in vivo) | Hyperphosphatemia, Grade 4 (human, in vivo) | Leukopenia, Grade 4 (human, in vivo) | Pneumonia, Grade 2 (human, in vivo)
47 (19%) n (%): Diarrhea, Grade 1 (human, in vivo)
11%: Grade 3/4 adverse event: pneumonia (human, in vivo) | Grade 3/4 adverse event: sepsis (human, in vivo) | Serious adverse event: pneumonia (human, in vivo)
39%: Grade 3/4 adverse event: febrile neutropenia (human, in vivo)
2 (0.8) n (%): Progressive AML, Grade 3 (human, in vivo)
< 1%: Treatment-related mortality from neutropenia (human, in vivo)
21 (8%) n (%): Edema peripheral, Grade 2 (human, in vivo) | Hypotension, Grade 2 (human, in vivo)
33 (13%) n (%): Elevated AST, Grade 1 (human, in vivo)
32 (13%) n (%): Diarrhea, Grade 2 (human, in vivo)
37 (15%) n (%): Fatigue, Grade 2 (human, in vivo)
29 (12%) n (%): Dyspnea, Grade 1 (human, in vivo) | Hypomagnesemia, Grade 1 (human, in vivo)
8 n: Deaths, primary cause Sepsis/staphylococcal sepsis (200 mg)
7 (3%) n (%): Acute renal failure, Grade 1 (human, in vivo) | Cellulitis, Grade 3 (human, in vivo) | Decreased neutrophil count, Grade 3 (human, in vivo) | Decreased platelet count, Grade 3 (human, in vivo) | Elevated blood phosphocreatine kinase, Grade 1 (human, in vivo) | Elevated blood phosphocreatine kinase, Grade 2 (human, in vivo) | Elevated blood phosphocreatine kinase, Grade 3 (human, in vivo) | Fall, Grade 3 (human, in vivo) | Febrile neutropenia, Grade 4 (human, in vivo) | Hypokalaemia, Grade 3 (human, in vivo) | Hypotension, Grade 1 (human, in vivo) | Lung infection, Grade 3 (human, in vivo) | Multi-organ failure, Grade 5 (human, in vivo) | Respiratory failure, Grade 5 (human, in vivo) | Sepsis, Grade 5 (human, in vivo) | Vomiting, Grade 2 (human, in vivo)
10 (4%) n (%): Asthenia, Grade 2 (human, in vivo) | Fall, Grade 2 (human, in vivo) | Hyponatraemia, Grade 3 (human, in vivo) | Insomnia, Grade 2 (human, in vivo) | Stomatitis, Grade 2 (human, in vivo)
6%: AE that led to study discontinuation: progressive disease (human, in vivo) | Serious adverse event: bacteremia (human, in vivo) | Serious adverse event: respiratory failure (human, in vivo)
2 n: Deaths, primary cause Bacteremia/staphylococcal bacteremia (80 mg) | Deaths, primary cause Death NOS (120 mg) | Deaths, primary cause Pneumonia (120 mg) | Deaths, primary cause Pneumonia (200 mg) | Deaths, primary cause Septic shock (200 mg) | Treatment-related Grade ≥3 diarrhea (200 mg/d)
36 (14%) n (%): Dizziness, Grade 1 (human, in vivo) | Epistaxis, Grade 1 (human, in vivo) | Pyrexia, Grade 1 (human, in vivo)
28 (11%) n (%): Elevated blood alkaline phosphatase, Grade 1 (human, in vivo)
9 (4%) n (%): Acute renal failure, Grade 2 (human, in vivo) | Decreased white blood cell count, Grade 4 (human, in vivo) | Elevated ALT, Grade 2 (human, in vivo) | Epistaxis, Grade 2 (human, in vivo) | Leukocytosis, Grade 3 (human, in vivo)
31%: Serious adverse event: febrile neutropenia (human, in vivo)
35 (14%) n (%): Vomiting, Grade 1 (human, in vivo)
40 (16%) n (%): Constipation, Grade 1 (human, in vivo) | Cough, Grade 1 (human, in vivo)
17 (7%) n (%): Constipation, Grade 2 (human, in vivo) | Fall, Grade 1 (human, in vivo)
25 (10%) n (%): Elevated ALT, Grade 1 (human, in vivo)
8%: Serious adverse event: pyrexia (human, in vivo)
3 n: Deaths, primary cause AML (20 mg) | Treatment-related Grade ≥3 elevated AST (200 mg/d)
1 ^b n: Deaths, primary cause Hemoptysis (80 mg, possibly related to treatment) | Deaths, primary cause Neutropenia [1] | Deaths, primary cause Ventricular fibrillation [1] | Deaths, primary cause Pulmonary embolism (200 mg, possibly related to treatment)
Seven: Deaths considered possibly/probably related to treatment (in vivo)
23 (9%) n (%): Anemia, Grade 2 (human, in vivo) | Dysgeusia, Grade 1 (human, in vivo) | Elevated blood creatinine, Grade 1 (human, in vivo) | Sepsis, Grade 4 (human, in vivo)
19 (8%) n (%): Arthralgia, Grade 1 (human, in vivo) | Nausea, Grade 2 (human, in vivo)
13 (5%) n (%): Bacteremia, Grade 3 (human, in vivo) | Diarrhea, Grade 3 (human, in vivo) | Elevated ALT, Grade 3 (human, in vivo) | Hypocalcaemia, Grade 1 (human, in vivo) | Hypoxia, Grade 3 (human, in vivo) | Pyrexia, Grade 3 (human, in vivo) | Syncope, Grade 3 (human, in vivo)
9 (36%) n (%): Febrile neutropenia, Grade 3 (human, in vivo)
2 (0·8%) n (%): Hypokalaemia, Grade 4 (human, in vivo) | Hypomagnesemia, Grade 2 (human, in vivo) | Hyponatraemia, Grade 4 (human, in vivo) | Hypotension, Grade 4 (human, in vivo) | Leukocytosis, Grade 4 (human, in vivo) | Leukopenia, Grade 3 (human, in vivo) | Mucosal inflammation, Grade 4 (human, in vivo) | Neutropenia, Grade 2 (human, in vivo) | Neutropenia, Grade 3 (human, in vivo) | Respiratory failure, Grade 3 (human, in vivo) | Septic shock, Grade 4 (human, in vivo) | Subdural hematoma, Grade 4 (human, in vivo) | Thrombocytopenia, Grade 3 (human, in vivo)
1 (0·4%) n (%): Acute renal failure, Grade 4 (human, in vivo) | Anemia, Grade 1 (human, in vivo) | Anemia, Grade 5 (human, in vivo) | Bacteremia, Grade 5 (human, in vivo) | Cellulitis, Grade 5 (human, in vivo) | Decreased platelet count, Grade 1 (human, in vivo) | Elevated AST, Grade 4 (human, in vivo) | Elevated blood bilirubin, Grade 4 (human, in vivo) | Febrile neutropenia, Grade 5 (human, in vivo) | Gastrointestinal hemorrhage, Grade 4 (human, in vivo) | Hyperglycemia, Grade 4 (human, in vivo) | Hyperuricemia, Grade 4 (human, in vivo) | Hypocalcaemia, Grade 4 (human, in vivo) | Hypoxia, Grade 1 (human, in vivo) | Hypoxia, Grade 5 (human, in vivo) | Lung infection, Grade 5 (human, in vivo) | Neutropenia, Grade 5 (human, in vivo) | Pneumonia, Grade 1 (human, in vivo) | Pneumonia, Grade 4 (human, in vivo) | Sepsis, Grade 2 (human, in vivo) | Thrombocytopenia, Grade 1 (human, in vivo)
5 (2%) n (%): Atrial fibrillation, Grade 3 (human, in vivo) | Back pain, Grade 3 (human, in vivo) | Clostridium difficile colitis, Grade 3 (human, in vivo) | Decreased neutrophil count, Grade 2 (human, in vivo) | Elevated blood alkaline phosphatase, Grade 2 (human, in vivo) | Hyperuricemia, Grade 3 (human, in vivo) | Hypoalbuminemia, Grade 1 (human, in vivo) | Hypoalbuminemia, Grade 3 (human, in vivo) | Mucosal inflammation, Grade 3 (human, in vivo) | Muscle weakness, Grade 3 (human, in vivo) | Nausea, Grade 3 (human, in vivo) | Pleural effusion, Grade 3 (human, in vivo) | Respiratory failure, Grade 4 (human, in vivo) | Sepsis, Grade 3 (human, in vivo) | Skin infection, Grade 3 (human, in vivo) | Thrombocytopenia, Grade 2 (human, in vivo) | Vomiting, Grade 3 (human, in vivo)
5(2%) n (%): Hypoxia, Grade 4 (human, in vivo)
13 n: Deaths, primary cause AML (200 mg)
1 (0.4%) n (%): Dyspnea, Grade 4 (human, in vivo)
17%: Serious adverse event: progressive disease (human, in vivo)
24%: Grade 3/4 adverse event: anemia (human, in vivo)
26 (10%) n (%): Pneumonia, Grade 3 (human, in vivo)
18 (7%) n (%): Decreased appetite, Grade 2 (human, in vivo) | Dyspnea, Grade 2 (human, in vivo) | Elevated AST, Grade 2 (human, in vivo) | Hyponatraemia, Grade 1 (human, in vivo) | Neutropenia, Grade 4 (human, in vivo)
3 (1.2%) n (%): Edema peripheral, Grade 3 (human, in vivo)
5 n: Deaths, primary cause AML (40 mg) | Deaths, primary cause AML (80 mg) | Deaths, primary cause Multi-organ failure (200 mg) | Deaths, primary cause Respiratory failure (200 mg) | Deaths, primary cause AML (300 mg)
15 (6%) n (%): Fatigue, Grade 3 (human, in vivo) | Hypocalcaemia, Grade 2 (human, in vivo)
2%: Serious AE considered related to treatment: acute renal failure (human, in vivo) | Serious AE considered related to treatment: febrile neutropenia (human, in vivo)
14%: Serious adverse event: sepsis (human, in vivo)
1%: AE associated with dose reductions: diarrhea (human, in vivo) | AE associated with dose reductions: fatigue (human, in vivo) | Serious AE considered related to treatment: pyrexia (human, in vivo) | Serious AE considered related to treatment: sepsis (human, in vivo)
22 (9%) n (%): Headache, Grade 1 (human, in vivo) | Hypoalbuminemia, Grade 2 (human, in vivo) | Hypokalaemia, Grade 1 (human, in vivo)
13%: Grade 3/4 adverse event: thromobocytopenia (human, in vivo)
12 (5%) n (%): Urinary tract infection, Grade 3 (Table 2) | Decreased appetite, Grade 1 (human, in vivo) | Elevated blood creatinine, Grade 2 (human, in vivo) | Stomatitis, Grade 1 (human, in vivo)
10%: Drug-related TEAEs leading to discontinuation (human, in vivo) | Patients requiring dose reductions (human, in vivo) | Serious adverse event: acute renal failure (human, in vivo)
11 (4%) n (%): Dizziness, Grade 2 (human, in vivo) | Dyspnea, Grade 3 (human, in vivo) | Fungal pneumonia, Grade 3 (human, in vivo) | Hypertension, Grade 2 (human, in vivo)
4%: Patients with maximum post-baseline QTcF interval >500 ms (human, in vivo)
4 (1·6%) n (%): Dysgeusia, Grade 2 (human, in vivo) | Elevated blood phosphocreatine kinase, Grade 4 (human, in vivo) | Gastrointestinal hemorrhage, Grade 3 (human, in vivo) | Hyponatraemia, Grade 2 (human, in vivo) | Pneumonia, Grade 5 (human, in vivo) | Septic shock, Grade 5 (human, in vivo) | Subdural hematoma, Grade 3 (human, in vivo)
55 (22%) n (%): Anemia, Grade 3 (human, in vivo)
8 (3%) n (%): Acute renal failure, Grade 3 (human, in vivo) | Arthralgia, Grade 2 (human, in vivo) | Hyperglycemia, Grade 3 (human, in vivo) | Hypertension, Grade 3 (human, in vivo) | Hypoxia, Grade 2 (human, in vivo) | QT Prolongation, Grade 3 (human, in vivo)
43 (17%) n (%): Edema peripheral, Grade 1 (human, in vivo)
6 (2%) n (%): Anemia, Grade 4 (human, in vivo) | Asthenia, Grade 3 (human, in vivo) | Decreased white blood cell count, Grade 3 (human, in vivo) | Elevated blood bilirubin, Grade 3 (human, in vivo) | Headache, Grade 2 (human, in vivo) | Hypertension, Grade 1 (human, in vivo) | Increased transaminase, Grade 3 (human, in vivo)
14 (6%) n (%): Asthenia, Grade 1 (human, in vivo) | Cough, Grade 2 (human, in vivo) | Decreased neutrophil count, Grade 4 (human, in vivo) | Elevated AST, Grade 3 (human, in vivo) | Hyperphosphatemia, Grade 3 (human, in vivo) | Hypocalcaemia, Grade 3 (human, in vivo) | Hypokalaemia, Grade 2 (human, in vivo) | Insomnia, Grade 1 (human, in vivo)
